The results in this text go back to ChEMBL document CHEMBL5727727, “(Aza)pyridopyrazolopyrimidinones and indazolopyrimidinones and their use” (2020).

This assay in a line: Plasma-Based Clot Lysis Assay: The clot-lysis test system configures the kinetics of clot formation and degradation in vitro and allows quantifying modulation of the process by selected test compounds.The test compounds were dissolved in 1% acetic acid and further complemented with an equal volume of DMSO. The resulting stock solutions were serially diluted in 0.5% acetic acid/50% DMSO. 1 μL aliquots of these solutions were placed into 384 well microplates (Greiner, black, transparent bottom), followed by 30 μL of diluted human citrated plasma (platelet-poor, final concentration: 5%; supplemented with fibrinogen, final concentration: 3 μM; dilution buffer: 20 mM HEPES, 150 mM NaCl, 0.01% Brij (pH 7)). The reactions were started by addition of 20 μL of CaCl2 (final concentration: 10 mM), and tPA (tissue plasminogen activator, final concentration: 0.2 nM) in dilution buffer, followed by an additional volume of 20 μL dilution buffer for improved mixing. The reactions were incubated at 37° C. Clot formation and degradation was monitored spectrophotometrically by kinetic optical density measurements at 405 nm. IC50 values were determined by comparing the resulting time courses with the time course of a blank control reaction.

Consider `O=c1cc(C2CCNCC2)n2nc3cc(F)cnc3c2[nH]1`, for which the IC50 stood at 21 nM. For the molecule `Nc1cccc2nn3c(C4CCNCC4)cc(=O)[nH]c3c12`, the IC50 came out at 35 nM. Regarding `O=c1cc(C2CCNCC2)n2nc3cncc(Br)c3c2[nH]1`, the IC50 worked out at 100 nM.

In general, IC50 refers to the concentration that inhibits the measured activity by half.
